{"source": "patent US20070059311A1", "about": "“Regulation of the hedgehog signaling pathway and uses thereof” (priority 2005, published 2007)", "key": {"[1]": {"system": "Hep3B cells", "experiment": "Trypan blue cell death assay", "type": "cell-based", "conditions": "KAAD-cyclopamine 2 μM", "description": "(§1) HCC cell cell lines (Hep3B, HepG2, HCC36, PLC/PRF/5 (identified as PLC) and Huh 7) were provided by Chiaho Shih, Tien Ko and Kui Li at UTMB. All cells were cultured in Dulbeco-modified essential medium (DMEM) with 10% FBS and antibiotics. […] In addition, the specific inhibition of hedgehog signaling in HCC cells was achieved by addition of Shh neutralizing antibodies (1 μg/ml in 0.5% FBS DMEM, Car# SC-9024, Santa Cruz Biotechnology, Santa Cruz, Calif.). […] Transient transfection of Gli1 in HCC cells was performed using LipofectAmine according to the manufacturer's recommendation (Plasmid-LipofectAmine=1:2.5). Cells with ectopic expression of Gli1 were subjected to drug treatment and to TUNEL (terminal deoxynucleotidyl transferase-mediated dUTP nick end labeling) assay.\n(§2) For cell viability analysis, two methods were used: trypan Blue analysis and MTT assay. Trypan Blue analysis was performed to manufacturer's instruction (Invitrogen, CA). The percentage of trypan blue positive cell (dead cells) were calculated under a microscope and triplicates of samples for each treatment were used in a 96-well format. Twenty microliters of MTT (10 mg/ml in PBS) was added to each well (containing 100 μl cultured medium, 0.5% FBS DMEM). […] Thirty minutes later, absorbance was measured at 570 nm using a microplate reader from Molecular Devices Co., Sunnyvale, Calif. […]"}, "[2]": {"system": "Hep2G cells", "experiment": "TUNNEL (TUNEL) apoptosis assay", "type": "cell-based", "conditions": "2 μM", "description": "(§3) TUNEL assay was performed using a kit from Roche Biochemicals according to published procedure (Athar et al., 2004). Briefly, cells were fixed with 4% paraformaldehyde at room temperature for 1 h and permeated with 0.1% Triton X-100, 0.1% sodium citrate (freshly prepared) on ice for 2 min. After washing with PBS, each sample was incubated with 50 μl of TUNEL reaction mixture at 37° C. for 30 min. TUNEL labeled solution (without enzyme) was used as a negative control. TUNEL positive cells were counted under a fluorescent microscope. The counting was repeated three times and the percentage from each counting was calculated."}, "[3]": {"system": "Hep3B cells", "experiment": "TUNNEL (TUNEL) apoptosis assay", "type": "cell-based", "conditions": "2 μM", "description": "as §3"}, "[4]": {"system": "liver cancer cells with activated hedgehog signaling pathway", "experiment": "induction of apoptosis in liver cancer cells", "type": "cell-based", "conditions": "2 μM KAAD-cyclopamine", "description": "as §3"}, "[5]": {"system": "Huh7 cells", "experiment": "BrdU incorporation", "type": "cell-based"}, "[6]": {"system": "Huh 7 cells that transiently expressed Gli1", "experiment": "TUNEL assay in cells with ectopic expression of Gli1", "type": "cell-based", "conditions": "Huh 7 cells transiently expressing Gli1 under CMV promoter", "description": "as §3"}, "[7]": {"system": "cells regardless of hedgehog signaling", "experiment": "toxicity of KAAD-cyclopamine to cells regardless of hedgehog signaling", "type": "cell-based", "conditions": "5 or 10 μM"}, "[8]": {"system": "GI cancer cells", "conditions": "GI cancer cells (Ma et al., 2006); cited from earlier work"}, "[9]": {"system": "Huh7-2-3(+) cells", "experiment": "real-time PCR of Gli1 in HCV replicating cells after interferon", "type": "cell-based", "conditions": "Huh7-2-3(+) cells treated with interferon (giving Huh7-2-3(−) cells)", "text": "The activation of hedgehog signaling pathway in hepatocellular carcinoma infected with virus or bacteria was also examined. Huh7 cells are hepatocellular carcinoma cells that can support HCV replication (Scholle F. et al., 2004. Huh7-2-3(+) are Huh7 cells that allow active HCV replication and Huh7-2-3(−) cells are derived from Huh7-2-3(+) cells following interferon treatment for two weeks to prevent virus replication. SIIA are gastric cancer cells with hedgehog signaling activation and used as control."}, "[10]": {"system": "Shh promoter", "experiment": "sonic hedgehog promoter activity (luciferase reporter) in HCV expressing cells", "type": "cell-based", "conditions": "Huh7 cells with stable expression of HCV; HCV RNA replication inhibited by interferon treatment", "text": "Furthermore, the present invention also examined whether HCV RNA replication was a major trigger for activated hedgehog signaling in Hepatocellular carcinoma. In order to do so, cell lines with or without HCV RNA replication for the sonic hedgehog (shh) promoter activity were compared. The promoter activity of SHH was higher in Huh7 cells than in HepG2 cells. […] However, the shh promoter activity was reduced when the HCV RNA replication was inhibited by interferon treatment as shown in 2-3c (FIG. 7B)."}, "[11]": {"system": "Hep3B cells", "experiment": "real-time PCR of hedgehog target genes Gli1 and PTCH1 after drug treatment", "type": "cell-based", "conditions": "2 μM", "description": "as §1"}, "[12]": {"system": "Huh7 cells", "experiment": "MTT cell growth assay", "type": "cell-based", "conditions": "tomatidine, negative control", "description": "as §1, §2"}}, "data": [{"compound": "KAAD-cyclopamine", "values": [{"measurement": "level of cell death (Trypan blue)", "setting": "[1]", "value": "increased level of cell death"}, {"measurement": "apoptosis (TUNNEL assay)", "setting": "[2]", "value": "no detectable apoptosis"}, {"measurement": "apoptosis (TUNNEL assay)", "setting": "[3]", "value": "apoptosis"}, {"measurement": "time within which apoptosis is induced", "setting": "[4]", "value": "≤ 12", "unit": "h"}, {"measurement": "BrdU incorporation", "setting": "[5]", "value": "reduced"}, {"measurement": "TUNEL / sensitivity to treatment", "setting": "[6]", "value": "negative for TUNEL"}, {"measurement": "toxicity to cells", "setting": "[7]", "value": "quite toxic"}, {"measurement": "concentration that could cause non-specific toxicity", "setting": "[8]", "value": 10, "unit": "µM"}]}, {"compound": "interferon", "values": [{"measurement": "expression of Gli1", "setting": "[9]", "value": "reduced"}, {"measurement": "shh promoter activity", "setting": "[10]", "value": "reduced"}]}, {"compound": "C[C@H]1CC[C@]2(NC1)O[C@H]1C[C@H]3[C@@H]4CC[C@H]5C[C@@H](O)CC[C@]5(C)[C@H]4CC[C@]3(C)[C@H]1[C@@H]2C", "note": "[tomatidine]", "values": [{"measurement": "levels of Gli1 and PTCH1 transcripts", "setting": "[11]", "value": "little discemible effect"}, {"measurement": "apoptosis (TUNNEL assay)", "setting": "[2]", "value": "did not induce apoptosis"}, {"measurement": "apoptosis (TUNNEL assay)", "setting": "[3]", "value": "did not induce apoptosis"}, {"measurement": "cell growth (MTT assay)", "setting": "[12]", "value": "did not affect cell growth"}]}]}
